Measurements published in patent publication US11090410B2 (priority 2011, dated 2021).
“Also recorded” adds a separate entry of the source. Where two headings read alike, the source gives them in different places.

Test system: acetylcholine receptor clustering in C2C12 mouse myoblast cell line
Assay type: cell-based
Conditions: for acetylcholine receptor clustering behavior: C2C12 cells on fibrin hydrogels, 5 days of treatment or beyond

With “beads covalently linked to agrin: polystyrene microparticles with agrin linked to the surface using EDAC/sulfo-NHS covalent crosslinking chemistry” the “acetylcholine receptor clustering behavior” value was “induction of clustering behavior; also recorded: Clustering behavior was verified at areas of contact”, the “acetylcholine receptor clustering behavior” value (listed as agrin-delivering microparticles) was “formation of AChR clusters” and the “agrin delivery over longer time periods” value (e.g., 5 or more days) was “enabled agrin delivery over longer time periods”.
